Source: patent publication US4894458A, “Quinolonecarboxylic acid derivatives and their preparation” (Kyorin Pharmaceutical Co., Ltd., priority 1986, dated 1990)
≈ marks a conversion by molar mass, not a printed value. Read-outs that look alike come from different tables or passages of the source.

How the values were obtained:
[1] = tested on: gram-negative and gram-positive bacteria; settings: cited from earlier work
[2] = tested on: Bacillus subtilis PCI 219; experiment: In vitro antibacterial activity (aerobic bacteria), MIC; format: cell-based; settings: PCI219
[3] = tested on: Acinetobacter anitratus IID 876; experiment: as above; format: cell-based; settings: 10^6 cells/ml
Description: (§1) Minimal inhibitory concentrations (MICs) were determined in accordance with the method recommended by Japan Society of Chemotherapy.

[4] = tested on: K. pneumoniae 1-220S; experiment: as above; format: cell-based; settings: Klebsiella pneumoniae, 1220S, Gram -, 10^6 cells/ml
Description: as §1

[5] = tested on: Morganella morganii IID 602; experiment: as above; format: cell-based; settings: 10^6 cells/ml
Description: as §1

[6] = tested on: P. mirabilis IID 994; experiment: as above; format: cell-based; settings: Proteus mirabilis, IID994, Gram -, 10^6 cells/ml
Description: as §1

[7] = tested on: Pseudomonas aeruginosa V-1; experiment: as above; format: cell-based; settings: Gram -, 10^6 cells/ml
Description: as §1

[8] = tested on: S. aureus IID 670 (Terajima); experiment: as above; format: cell-based; settings: Staphylococcus aureus, IID670, Gram +, 10^6 cells/ml
Description: as §1

[9] = tested on: S. epidermidis IID 866; experiment: as above; format: cell-based; settings: Staphylococcus epidermidis, IID866, Gram +, 10^6 cells/ml
Description: as §1

[10] = tested on: Serratia marcescens IID 618; experiment: as above; format: cell-based; settings: IID618, Gram -, 10^6 cells/ml
Description: as §1

[11] = tested on: Staphylococcus aureus 209 P; experiment: as above; format: cell-based; settings: Gram +, 10^6 cells/ml
Description: as §1

[12] = tested on: Escherichia coli NIHJ JC-2; experiment: as above; format: cell-based; settings: NIHJJC2, aerobic, Gram -, 10^6 cells/ml
[13] = tested on: Citrobacter freundii IID 976; experiment: as above; format: cell-based
[14] = tested on: P. aeruginosa IFO 12689; experiment: as above; format: cell-based; settings: Pseudomonas aeruginosa, IFO12689
[15] = tested on: Yersinia enterocolitica IID 981; experiment: microbe, parasite or virus in culture; format: cell-based; settings: IID981
[16] = tested on: Alcaligenes faecalis 0114002; experiment: In vitro antibacterial activity (aerobic bacteria), MIC; format: cell-based; settings: Alcaligenes faecalis, 0114002, aerobic; Gram -; 10^6 cells/ml
[17] = tested on: Bacteroides fragilis GM 7000; experiment: In vitro antibacterial activity (anaerobic bacteria), MIC; format: cell-based; settings: GM7000
[18] = tested on: B. fragilis 0558; experiment: as above; format: cell-based; settings: Bacteroides fragilis
[19] = tested on: B. fragilis 25285; experiment: as above; format: cell-based; settings: Bacteroides fragilis
[20] = tested on: B. thetaiotaomicron (0661); experiment: as above; format: cell-based; settings: anaerobic, Gram -, 10^6 cells/ml
[21] = tested on: Peptococcus magnus KY 017; experiment: as above; format: cell-based; settings: 10^6 cells/ml
Description: as §1

[22] = tested on: C. ramosum; experiment: as above; format: cell-based; settings: anaerobic, Gram +, 10^6 cells/ml
[23] = tested on: Veillonella parvula KYA 10790; experiment: as above; format: cell-based; settings: KYA10790
[24] = tested on: E. coli ATCC 10536; experiment: In vitro antibacterial activity (aerobic bacteria), MIC; format: cell-based; settings: Escherichia coli, ATCC10536, Gram -, 10^6 cells/ml
Description: as §1

[25] = tested on: Proteus vulgaris IFO 3167; experiment: as above; format: cell-based; settings: IFO3167, Gram -, 10^6 cells/ml
Description: as §1

[26] = tested on: Shigella sonnei IID 969; experiment: as above; format: cell-based; settings: IID969, Gram -, 10^6 cells/ml
Description: as §1

[27] = tested on: Klebsiella pneumoniae KY(GN)6445; experiment: as above; format: cell-based
[28] = tested on: Enterobacter cloacae IID 977; experiment: as above; format: cell-based; settings: IID977
[29] = tested on: Salmonella enteritidis IID 604; experiment: as above; format: cell-based; settings: Salmonella enterica
[30] = tested on: P. aeruginosa IID 1210; experiment: as above; format: cell-based; settings: Pseudomonas aeruginosa, IID1210, aerobic; Gram -; 10^6 cells/ml
[31] = tested on: P. cepacia GIFU 518; experiment: as above; format: cell-based; settings: Burkholderia cepacia, GIFU518; aerobic; Gram -; 10^6 cells/ml; read-out: MIC
[32] = tested on: P. maltophilia GIFU 2491; experiment: as above; format: cell-based; settings: Stenotrophomonas maltophilia, GIFU2491; aerobic; Gram -; 10^6 cells/ml; read-out: MIC
[33] = tested on: B. distasonis 8503; experiment: In vitro antibacterial activity (anaerobic bacteria), MIC; format: cell-based; settings: Parabacteroides distasonis, Gram -, 10^6 cells/ml, read-out: MIC
[34] = tested on: Fusobacterium necrophorum S-45; experiment: as above; format: cell-based; settings: S45, anaerobic, Gram -, 10^6 cells/ml, read-out: MIC
[35] = tested on: F. varium KYA 8501; experiment: as above; format: cell-based; settings: Fusobacterium varium, KYA8501; anaerobic; Gram -; 10^6 cells/ml; read-out: MIC
[36] = tested on: Eubacterium lentum GAI 5242; experiment: as above; format: cell-based; settings: Eggerthella lenta, GAI5242
[37] = tested on: Propionibacterium acens 11828; experiment: as above; format: cell-based; settings: anaerobic, Gram +, 10^6 cells/ml, read-out: MIC
[38] = tested on: Clostridium difficile I-E; experiment: as above; format: cell-based; settings: Clostridioides difficile; anaerobic; Gram +; 10^6 cells/ml; read-out: MIC
[39] = tested on: C. perfringens KYA 13123; experiment: microbe, parasite or virus in culture; format: cell-based; settings: Clostridium perfringens, KYA13123
[40] = tested on: Peptostreptococcus anaerobius KYA 27337; experiment: In vitro antibacterial activity (anaerobic bacteria), MIC; format: cell-based; settings: KYA27337, anaerobic, Gram +, 10^6 cells/ml, read-out: MIC
[41] = tested on: Pst micros UPI 5464-1; experiment: microbe, parasite or virus in culture; format: cell-based; settings: anaerobic; Gram +; 10^6 cells/ml
[42] = Acinetobacter calcoaceticus, IID876, Gram -, read-out: MIC
[43] = Morganella morganii, IID602, Gram -, read-out: MIC
[44] = Pseudomonas aeruginosa, V1, aerobic, read-out: MIC
[45] = anaerobic, Gram -, 10^6 cells/ml, read-out: MIC

For CCn1cc(C(=O)O)c(=O)c2cc(F)c(N3CCNCC3)cc21 [norfloxacin], the antibacterial activity ([1]; gram-negative bacteria including Pseudomonas aeruginosa and gram-positive bacteria) is listed as “high antibacterial activity”.
In the case of O=C(O)c1cn(C2CC2)c2cc(N3CCNCC3)c(F)cc2c1=O [CPFX, ciprofloxacin, reference compound], the MIC [2] is reported as 0.05 µg/mL (≈ 0.151 µM), the MIC [3, 42] is reported as 0.1 µg/mL (≈ 0.302 µM) and the MIC ([3]; Gram -) is reported as 0.20 µg/mL (≈ 0.604 µM). For the same molecule, the MIC [4] was 0.05 µg/mL (≈ 0.151 µM), the MIC ([5]; Gram -) was 0.025 µg/mL (≈ 0.0754 µM) and the MIC [5, 43] was 0.05 µg/mL (≈ 0.151 µM). It also gave an MIC [6] of 0.025 µg/mL (≈ 0.0754 µM), an MIC [7, 44] of 0.05 µg/mL (≈ 0.151 µM) and an MIC ([7]; aerobic) of 0.10 µg/mL (≈ 0.302 µM). For the same molecule, the MIC [8] was 0.2 µg/mL (≈ 0.604 µM), the MIC [9] was 0.2 µg/mL (≈ 0.604 µM) and the MIC [10] was 0.05 µg/mL (≈ 0.151 µM). The MIC [11] was 0.2 µg/mL (≈ 0.604 µM), the MIC [12] was no more than 0.0063 µg/mL and the MIC ([13]; aerobic, Gram -, 10^6 cells/ml) was 0.0063 µg/mL (≈ 0.019 µM). The MIC [14] was 0.2 µg/mL (≈ 0.604 µM), the MIC [15] was 0.05 µg/mL (≈ 0.151 µM) and the MIC [16] was 0.2 µg/mL (≈ 0.604 µM). It also gave an MIC [17] of 6.25 µg/mL (≈ 18.9 µM), an MIC [18] of 3.13 µg/mL (≈ 9.45 µM) and an MIC [19] of 3.13 µg/mL (≈ 9.45 µM). The MIC [20] was 25 µg/mL (≈ 75.4 µM), the MIC ([21]; Gram +) was 0.20 µg/mL (≈ 0.604 µM) and the MIC [22] was 6.25 µg/mL (≈ 18.9 µM). The MIC [23] was 0.2 µg/mL (≈ 0.604 µM), the “antibacterial activity compared with norfloxacin” value [1] was “stronger antibacterial activity than norfloxacin” and the “antibacterial potency against gram-positive bacteria” value ([1]; compared with gram-negative bacteria) was “considerably inferior to that against gram-negative bacteria”.
With CCn1cc(C(=O)O)c(=O)c2cc(F)c(N3CCC(N)C3)c(C)c21 (centres unmarked) [Exp. 25, 7-(3-Amino-1-pyrrolidinyl)-1-ethyl-6-fluoro-1,4-dihydro-8-methyl-4-oxo-3-quinolinecarboxylic acid] the MIC [2] was 0.1 µg/mL (≈ 0.3 µM), the MIC [3, 42] was 0.78 µg/mL (≈ 2.34 µM) and the MIC [24] was 0.025 µg/mL (≈ 0.075 µM). For the same molecule, the MIC [4] was 0.1 µg/mL (≈ 0.3 µM), the MIC [5, 43] was 0.2 µg/mL (≈ 0.6 µM) and the MIC [6] was 0.05 µg/mL (≈ 0.15 µM). The MIC [25] was 0.0125 µg/mL (≈ 0.0375 µM), the MIC [7, 44] was 0.39 µg/mL (≈ 1.17 µM) and the MIC [8] was 0.2 µg/mL (≈ 0.6 µM). The MIC [9] was 0.2 µg/mL (≈ 0.6 µM), the MIC [10] was 0.05 µg/mL (≈ 0.15 µM) and the MIC [26] was 0.05 µg/mL (≈ 0.15 µM). It also gave an MIC [11] of 0.2 µg/mL (≈ 0.6 µM), an MIC [12] of 0.0125 µg/mL (≈ 0.0375 µM) and an MIC [27] of 0.1 µg/mL (≈ 0.3 µM). The MIC [28] was 0.1 µg/mL (≈ 0.3 µM), the MIC ([13]; Citrobacter freundii, IID976) was 0.05 µg/mL (≈ 0.15 µM) and the MIC [29] was 0.05 µg/mL (≈ 0.15 µM). For the same molecule, the MIC ([14]; aerobic, Gram -, 10^6 cells/ml, read-out: MIC) was 1.56 µg/mL (≈ 4.68 µM), the MIC [30] was 0.78 µg/mL (≈ 2.34 µM) and the MIC [31] was 1.56 µg/mL (≈ 4.68 µM). It also gave an MIC [32] of 1.56 µg/mL (≈ 4.68 µM), an MIC [15] of 0.1 µg/mL (≈ 0.3 µM) and an MIC [16] of 0.78 µg/mL (≈ 2.34 µM). The MIC [17] was 3.13 µg/mL (≈ 9.39 µM), the MIC [18, 45] was 1.56 µg/mL (≈ 4.68 µM) and the MIC [19, 45] was 1.56 µg/mL (≈ 4.68 µM). The MIC [33] was 6.25 µg/mL (≈ 18.7 µM), the MIC ([20]; Bacteroides thetaiotaomicron, read-out: MIC) was 6.25 µg/mL (≈ 18.7 µM) and the MIC [34] was 1.56 µg/mL (≈ 4.68 µM). The MIC [35] was 6.25 µg/mL (≈ 18.7 µM), the MIC [36] was 0.78 µg/mL (≈ 2.34 µM) and the MIC [37] was 12.5 µg/mL (≈ 37.5 µM). For the same molecule, the MIC ([21]; Finegoldia magna, KY017, Gram +, read-out: MIC) was 0.39 µg/mL (≈ 1.17 µM), the MIC [38] was 6.25 µg/mL (≈ 18.7 µM) and the MIC [39] was 0.78 µg/mL (≈ 2.34 µM). For the same molecule, the MIC ([22]; Thomasclavelia ramosa, read-out: MIC) was 12.5 µg/mL (≈ 37.5 µM), the MIC [40] was 1.56 µg/mL (≈ 4.68 µM) and the MIC [41] was 0.39 µg/mL (≈ 1.17 µM). It also gave an MIC [23] of 0.39 µg/mL (≈ 1.17 µM).
